Paper PMC10401651, “Characterization of Uranyl (UO2^2+) Ion Binding to Amyloid Beta (Aβ) Peptides: Effects on Aβ Structure and Aggregation” (ACS Chemical Neuroscience, 2023)
Values joined by “and” are separate entries in the source; they are usually repeats but may differ in a detail not shown here. Equal values may be shown once. Read-outs that look alike come from different tables or passages of the source.

What was measured:
[1] = molecular target: T1, Aβ40 peptides (Homo sapiens, UniProt P05067); test: CD spectroscopy on the Aβ40 secondary structure
T1 construct: namely, the Aβ40 peptide; purchased AlexoTech AB (Umeå, Sweden); host or cells: recombinant
Description: The CD spectra for Aβ40 monomers in aqueous buffer display spectra with minima around 196–198 nm (Figure 5B,E), which is typical for a random coil conformation. […] The difference spectrum is not conclusive but might represent β-sheet conformation (Figure 5C).
CD measurements were carried out on a Chirascan CD spectrometer from Applied Photophysics Ltd. (U.K). Samples containing 600 μL of 10 μM Aβ40 peptide in 20 mM phosphate buffer, at either pH 7.3 or pH 5.1, were placed in a quartz cuvette with a 2 mm pathlength. CD spectra were recorded at 20 °C between 192 and 250 nm using steps of 0.5 nm and a sampling time of 5 s per data point. […] All data was processed with the Chirascan Pro-Data v.4.4.1 software (Applied Photophysics Ltd., U.K.), including smoothing with a ten-point smoothing filter. 50 mM SDS detergent was added to some of the samples as SDS micelles constitute a simple model for bio-membranes.[125],[126] Aβ peptides are known to insert their central and C-terminal segments as α-helices into SDS micelles, while the N-terminal Aβ segment remains unstructured outside the micelle surface.[19],[125] Because the critical micelle concentration for SDS is 8.2 mM in water at 25 °C,[152] micelles clearly formed under the experimental conditions. With approximately 62–65 SDS molecules per micelle,[156] 50 mM SDS yields a micelle concentration slightly below 1 mM, i.e., much higher than the concentration of Aβ peptides. This means that each micelle will generally contain no more than one Aβ peptide, which effectively prevents Aβ aggregation and ensures that uranyl interactions are with monomeric Aβ peptides. […] Even though 50 mM SDS would efficiently denature most folded proteins, such denaturing effects are not relevant for small intrinsically disordered peptides such as Aβ (in monomeric form).

[2] = molecular target: T2, Aβ40 (H6A, H13A, and H14A) triple-mutant, Aβ40 (NoHis) (Homo sapiens, UniProt P05067, H677A/H684A/H685A); test: Binding affinity via Tyr10 fluorescence quenching, Aβ40 (NoHis) mutant; settings: 20 μM Aβ40 (NoHis)
T2 construct: the Aβ40 (H6A, H13A, and H14A) triple-mutant; purchased AlexoTech AB (Umeå, Sweden); host or cells: recombinant
From the text: Synthetic lyophilized wt Aβ (1–42) peptides, abbreviated as Aβ42, with the primary sequence DAEFR5HDSGY10EVHHQ15KLVFF20AEDVG25SNKGA30IIGLM35VGGVV40IA, were purchased from JPT Peptide Technologies (Germany). Two recombinant Aβ variants were purchased as lyophilized powder from AlexoTech AB (Umeå, Sweden), namely, the Aβ40 peptide and the Aβ40 (H6A, H13A, and H14A) triple-mutant, which in the following is referred to as the Aβ40 (NoHis) mutant. The Aβ40 peptide was also purchased uniformly single-labeled with ^15N isotopes. All Aβ40 peptide variants were stored at −80 °C until use. Before measurements, they were dissolved in 10 mM NaOH and then sonicated in an ice bath for 5 min to avoid pre-formed aggregates. The samples were then diluted in either sodium phosphate buffer at pH 7.3 or in MES buffer at pH 7.3 or 5.1. The peptide concentrations were initially estimated from the weight of the dry powder and then more accurately determined with a NanoDrop spectrophotometer.
Fluorescence measurements were conducted on a Jobin Yvon Horiba Fluorolog 3 fluorescence spectrophotometer (Longjumeau, France) using a quartz cuvette with a 4 mm path length. The fluorescence emission intensity of samples containing 20 μM Aβ peptides in 20 mM MES buffer, at either pH 7.3 or pH 5.5 and without or with 50 mM SDS detergent present, was measured at 305 nm (excitation wavelength 276 nm) at 20 °C. […] Apparent dissociation constants (KD^App) were determined by fitting the plots to eq 2 [drawing 2] 2 where I0 is the initial fluorescence intensity with no added UO2^2+ ions, I∞ is the steady-state intensity at the end of the titration, [Ab] is the protein concentration, and [U] is the concentration of added UO2^2+ ions.[121],[160]

[3] = molecular target: T1, Aβ40 peptides; test: Fluorescence measurements of dityrosine cross-link formation; assay type: biochemical; settings: 100 μM uranyl acetate, 10 μM Aβ40, 20 mM MES pH 7.3, 24 h, room temperature
Description: Two samples of Aβ40 peptides were studied. The control sample contained 100 μM EDTA to remove possible contaminating metal ions that could promote dityrosine formation. […] For both samples, the fluorescence spectra are virtually identical before and after 24 h of incubation (Figure 6). Specifically, no peak around 410 nm, indicative of dityrosine,[129],[130] has emerged.
Fluorescence emission spectra between 330 and 480 nm (excitation at 315 nm) were recorded at room temperature with a Jobin Yvon Horiba Fluorolog 3 fluorescence spectrometer (Longjumeau, France) for two samples of 10 μM Aβ40 peptide in 20 mM MES buffer, pH 7.3. […] The control sample contained 100 μM of the chelator EDTA to remove any free metal ions. All measurements were conducted in triplicate using a quartz cuvette with a 4 mm path length and containing a 0.7 mL liquid sample. Spectra were recorded after 0 and 24 h of incubation, during which the samples were kept at room temperature without agitation or other treatment.

T1 sequence (P05067 672-711 limits assumed): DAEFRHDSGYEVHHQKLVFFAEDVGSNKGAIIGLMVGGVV
T2 sequence (P05067 672-711 H677A/H684A/H685A): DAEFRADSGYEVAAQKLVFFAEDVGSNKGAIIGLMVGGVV

In the case of `CC(=O)[O-].CC(=O)[O-].[O]=[U+2]=[O]` [uranyl ions, uranyl acetate], the “structural transition of Aβ40 (CD)” value ([1]; 50 mM SDS micelles, pH 5.1, 10 μM Aβ40) is reported as “structural conversion from α-helix to a random coil”, the “changes in the Aβ40 CD spectrum” value ([1]; 50 mM SDS micelles, pH 7.3, 10 μM Aβ40) is reported as “no changes at all” and the “structural transition of Aβ40 (CD)” value ([1]; aqueous buffer pH 5.1, 10 μM Aβ40, 2-256 μM uranyl acetate, 20 °C) is reported as “conversion from random coil to β-sheet”. The “structural effect on Aβ40 (CD), compared with pH 5.1” value ([1]; aqueous buffer pH 7.3, 10 μM Aβ40, 2-256 μM uranyl acetate, 20 °C) was “weaker”, the Kd ([2]; pH 7.3 + 50 mM SDS, read-out: KD^App, single replicates) was 119 µM and 124 µM and 116 µM and the Kd ([2]; pH 7.3 + 50 mM SDS, three replicates, read-out: KD^App, average) was 120 ± 4 µM. The Kd ([2]; pH 7.3, 20 mM MES, read-out: KD^App, single replicates) was 62 µM and 86 µM and 79 µM, the Kd ([2]; pH 7.3, 20 mM MES, three replicates, read-out: KD^App, average) was 76 ± 11 µM and the “formation of dityrosine cross-links” value [3] was “do not induce the formation of dityrosine cross-links”.
